According to patent US8592426B2, “Aryl-benzocycloalkyl amide derivatives” (Hoffmann—La Roche Inc., priority 2011, dated 2013):

Key:
Bradykinin-1 receptor [1] = biological target: T1, Bradykinin-1 receptor (Homo sapiens (Human), UniProt P46663); test: Receptor binding assay (B1R Binding Assay), [3H]-Kallidin (Des Arg10, Leu9) displacement; conditions: membranes from CHO-K1 cells overexpressing Bradykinin-1 receptor; 6 nM radioligand
Experimental: Binding assays were done with membranes from CHO-K1 cells overexpressing Bradykinin-1 receptor.
To determine non-specific binding 10 μM Lys-(Des-Arg^9)-Bradykinin (Bachem) was added. Membranes were harvested through GF/B (glass fiber filter; PerkinElmer) plates, equilibrated with 0.5% polyethylenimine, air dried at 50° C. for 2 h. Radioactivity was determined by counting in a topcounter (NXT Packard).

Bradykinin-1 receptor [2] = biological target: T1, Bradykinin-1 receptor; test: Calcium mobilization assay (FLIPR, Fluo-4) in GeneBLAzer Bradykinin (B1)-NFAT-bla CHO-K1 cells; assay type: cell-based; conditions: antagonist activity; CHO-K1 cells stably overexpressing the human bradykinin 1 receptor; read-out: Ca mobilization Assay IC50

T1 sequence (P46663 whole entry): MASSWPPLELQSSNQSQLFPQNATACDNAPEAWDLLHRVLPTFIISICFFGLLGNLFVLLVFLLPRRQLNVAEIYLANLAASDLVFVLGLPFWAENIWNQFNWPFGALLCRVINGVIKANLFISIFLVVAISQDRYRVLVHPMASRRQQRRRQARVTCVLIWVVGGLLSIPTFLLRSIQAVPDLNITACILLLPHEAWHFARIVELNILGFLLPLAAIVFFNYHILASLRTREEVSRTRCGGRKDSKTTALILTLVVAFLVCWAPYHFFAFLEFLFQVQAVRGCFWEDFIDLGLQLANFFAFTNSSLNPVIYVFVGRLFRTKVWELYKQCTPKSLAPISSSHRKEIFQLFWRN

| Ki (Bradykinin-1 receptor [1]) [nM] | IC50 (Bradykinin-1 receptor [2]) [nM] | Compound |
| --- | --- | --- |
| 25.7 | 4.3 | Cc1cc(C(=O)NC2(C(=O)N[C@H]3CCc4cc(-c5cc(Cl)cc(F)c5-c5noc(C)n5)ccc43)COC2)on1 [Example 52, 3-Methyl-isoxazole-5-carboxylic acid (3-{(S)-5-[5-chloro-3-fluoro-2-(5-methyl-[1,2,4]oxadiazol-3-yl)-phenyl]-indan-1-ylcarbamoyl}-oxetan-3-yl)-amide] |
| 3.6 | 0.4 | COc1cc(C(=O)NC2(C(=O)N[C@H]3CCc4cc(-c5cc(Cl)cc(F)c5-c5noc(C)n5)ccc43)COC2)on1 [Example 53, 3-Methoxy-isoxazole-5-carboxylic acid (3-{(S)-5-[5-chloro-3-fluoro-2-(5-methyl-[1,2,4]oxadiazol-3-yl)-phenyl]-indan-1-ylcarbamoyl}-oxetan-3-yl)-amide] |

The remaining lines, values behind:

| Compound | Ki (Bradykinin-1 receptor [1]) [nM] | IC50 (Bradykinin-1 receptor [2]) [nM] |
| --- | --- | --- |
| COc1cc(C(=O)NC2(C(=O)N[C@H]3CCc4cc(-c5cc(Cl)cc(F)c5-c5noc(C)n5)ccc43)CC2)on1 [Example 30, 3-Methoxy-isoxazole-5-carboxylic acid(1-{(S)-5-[5-chloro-3-fluoro-2-(5-methyl-[1,2,4]oxadiazol-3-yl)-phenyl]-indan-1-ylcarbamoyl}-cyclopropyl)-amide] | 3.9 | 0.1 |
| Cc1nc(-c2c(F)cc(Cl)cc2-c2ccc3c(c2)CC[C@@H]3NC(=O)C2(NC(=O)c3cncnc3)COC2)no1 [Example 50, Pyrimidine-5-carboxylic acid (3-{(S)-5-[5-chloro-3-fluoro-2-(5-methyl-[1,2,4]oxadiazol-3-yl)-phenyl]-indan-1-ylcarbamoyl}-oxetan-3-yl)-amide] | 4.8 | 0.4 |
| Cc1nc(-c2c(F)cc(Cl)cc2-c2ccc3c(c2)CC[C@@H]3NC(=O)C2(NC(=O)c3ccno3)COC2)no1 [Example 51, Isoxazole-5-carboxylic acid (3-{(S)-5-[5-chloro-3-fluoro-2-(5-methyl-[1,2,4]oxadiazol-3-yl)-phenyl]-indan-1-ylcarbamoyl}-oxetan-3-yl)-amide] | 11.8 | 2.7 |
